The record followed here is US9914732B2, “Diazabicyclo[4.3.1]decane derivatives for treatment of psychiatric disorders” (Max-Planck-Gesellschaft zur Forderung der Wissenschaften …, priority 2014, dated 2018).

Structures are written as SMILES.

One assay has as its target T1, FKBP51 (Homo sapiens, UniProt Q13451).
T1 sequence (Q13451 42-130 limits assumed): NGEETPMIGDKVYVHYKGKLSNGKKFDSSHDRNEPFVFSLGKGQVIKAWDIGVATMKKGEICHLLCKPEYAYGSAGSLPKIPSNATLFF
Description: Fluorescence polarization (FP) assay, binding to the FK506-binding domain of FKBP51. The settings on record: FK506-binding domain of FKBP51 (FKBP51FK1), competition with fluorescent ligand 2b. On the procedure:
(§1) In the present invention, in vitro fluorescence polarization assays with the compounds of the general formula (I) were performed to determine the binding affinities to FKBP51 and FKBP52 or to the isolated FK506-binding domains of FKBP51 and FKBP52 ([…]). Binding to the isolated FK506-binding domains is reliably indicative of binding to the full length proteins. The affinities for the isolated FK506-binding domains and for full-length FKBP51 or FKBP52 are the same for all compounds tested so far (Kozany et al, ChemBioChem 2009, 10, 1402-1410).
(§2) Example 11: Fluorescence Polarization (FP) Assays
(§3) In-vitro fluorescence polarization assays were performed to determine the binding affinities for FKBP51 and 52 according to a literature procedure (Kozany, C.; Marz, A.; Kress, C.; Hausch, F., Fluorescent probes to characterise FK506-binding proteins. Chembiochem 2009, 10, (8), 1402-10).
(§4) For fluorescence polarization assays the fluorescent ligand 2b was dissolved in HEPES (20 mm, pH 8), Triton-X100 (0.01%), at double the concentration required for the final sample. The target protein was also diluted in this assay buffer at double the highest concentration required for the final sample. This protein stock was used for a 1:1 serial dilution.
(§5) The fluorescent ligand 2b was diluted in assay buffer to a concentration double the final concentration (20 nM 2b). The inventive compound was dissolved in DMSO to reach a 100-times concentrated stock solution. This was used for a 1:1 serial dilution in DMSO. Every sample of this serial dilution was diluted by a factor of 50 in assay buffer supplemented with ligand 2b to achieve a 2× concentrated mixture of ligand 2b and the inventive compound. To this competitive ligand double the protein concentration for 2b assay: FKBP51FK1 560 nM (2×280 nM) or FKBP52FK1 800 nM (2×400 nM) diluted in assay buffer was added.
(§6) The samples were transferred to black 384-well assay plates (No.: 3575; Corning Life Sciences). After incubation at room temperature for 30 min the fluorescence anisotropy was measured (GENios Pro, Tecan, Männedorf, Switzerland) by using an excitation filters of 485/20 nm and emission filters of 535/25 nm. The binding assays were performed in duplicates in the plate format.
(§7) The competition curves were analyzed by using SigmaPlot9. Data were fitted to a four parameter logistic curve to deduce the IC50 values. For the analysis of K1 values, data were fitted to the following equation (Z. X. Wang, FEBS Lett. 1995, 360, 111-114). A=(Amax−Amin)/[L]t×(([L]t×((2×((Klig+Kcomp+[L]t+[I]t−[R]t)^2−3×(Kcomp×([L]t−[R]t)+Klig×([I]t−[R]t)+[…]))^0.5×COS(ARCCOS((−2×(Klig+Kcomp+[L]t+[I]t−[R]t)^3+9×(Klig+Kcomp+[L]t+[I]t−[R]t)×(Kcomp×([L]t−[R]t)+Klig×([I]t−[R]t)+Klig×Kcomp)−27×(−1×Klig×Kcomp×[R]t))/(2×((((Klig+Kcomp+[L]t+[I]t−[R]t)^2−3×(Kcomp×([L]t−[R]t)+Klig×([I]t−[R]t)+Klig×Kcomp))^3)^0.5)))/3))−(Klig+Kcomp+[L]t+[I]t−[R]t)))/((3×Klig)+((2×((Klig+Kcomp+[L]t+[I]t−[R]t)^2−3×(Kcomp×([L]t−[R]t)+Klig×([I]t−[R]t)+Klig×Kcomp))^0.5×COS(ARCCOS((−2×(Klig+Kcomp+[L]t+[I]t−[R]t)^3+9×(Klig+Kcomp+[L]t+[I]t−[R]t)×(Kcomp×([L]t−[R]t)+Klig×([I]t−[R]t)+Klig×Kcomp)−27×(−1×Klig×Kcomp×[R]t))/(2×((((Klig+Kcomp+[L]t+[I]t−[R]t)^2−3×(Kcomp×([L]t−[R]t)+Klig×([I]t−[R]t)+Klig×Kcomp))^3)^0.5)))/3))−(Klig+Kcomp+[L]t+[I]t−[R]t)))+Amin
(§8) In this equation Klig and Kcomp stand for the Kd values of the used tracer or competing inhibitor, [I]t is referring to the total concentration of the titrated inhibitor.
(In general: In fluorescence polarisation assays a small probe gives low polarisation when free and higher when bound to something large.)

For another assay, the target named is T2, FKBP52 (Homo sapiens, UniProt Q02790).
T2 sequence (Q02790 50-138 limits assumed): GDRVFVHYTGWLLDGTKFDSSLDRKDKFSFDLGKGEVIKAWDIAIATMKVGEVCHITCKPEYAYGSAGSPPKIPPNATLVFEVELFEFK
Put plainly: Fluorescence polarization (FP) assay, binding to the FK506-binding domain of FKBP52. The settings on record: FK506-binding domain of FKBP52 (FKBP52FK1), competition with fluorescent ligand 2b. On the procedure:
as §1, §2, §3, §4, §5, §6, §7, §8

Turning to `COC[C@H]1CN(Cc2cnn[nH]2)C(=O)[C@@H]2CCC[C@H]1N2S(=O)(=O)c1ccc(NC(C)=O)c(Br)c1` [Compound N22, N-(4-(((1S,5S,6R)-3-((1H-1,2,3-triazol-5-yl)methyl)-5-(methoxymethyl)-2-oxo-3,10-diazabicyclo[4.3.1]decan-10-yl)sulfonyl)-2-bromophenyl)acetamide], the inhibition constant Ki at FKBP51 and at FKBP52 was at most 100 nM in each case.
As for `C=CC1CN(Cc2ccccn2)C(=O)C2CCCC1N2S(=O)(=O)c1cccc(Br)c1` (stereo in doubt) [Compound K5, (1S,5R,6R)-10-((3-bromophenyl)sulfonyl)-3-(pyridin-2-ylmethyl)-5-vinyl-3,10-diazabicyclo[4.3.1]decan-2-one], the Ki on FKBP51 and on FKBP52 was at most 100 nM each time.
For the compound `COc1ccc(OCCN2C[C@H](C[C@H](C)O)C3CCCC(C2=O)N3S(=O)(=O)c2cc(Cl)cc(Cl)c2)cc1OC` (single isomer, unassigned) [Compound D4], the Ki at FKBP51 and at FKBP52 was at most 100 nM throughout.
Take `C#CCN1CC(C=C)C2CCCC(C1=O)N2S(=O)(=O)c1cc(Cl)cc(Cl)c1` (stereo in doubt) [Compound J12, (1S,5R,6R)-10-((3,5-dichlorophenyl)sulfonyl)-3-(prop-2-yn-1-yl)-5-vinyl-3,10-diazabicyclo[4.3.1]decan-2-one]: the Ki at FKBP51 and at FKBP52 was 100 to 500 nM in each case.
For the compound `COCCN1C[C@H](C(C)(C)O)[C@H]2CCC[C@@H](C1=O)N2S(=O)(=O)c1cc(Cl)cc(Cl)c1` [Compound B3, (1S,5S,6R)-10-((3,5-dichlorophenyl)sulfonyl)-5-(2-hydroxypropan-2-yl)-3-(2-methoxyethyl)-3,10-diazabicyclo[4.3.1]decan-2-one], the Ki on FKBP51 and on FKBP52 was at most 100 nM throughout.
Regarding `CCOCCN1C[C@H](C(O)CO)[C@H]2CCC[C@@H](C1=O)N2S(=O)(=O)c1cc(Cl)cc(Cl)c1` (stereo partly drawn) [Compound C3, (1S,5S,6R)-10-((3,5-dichlorophenyl)sulfonyl)-5-(1,2-dihydroxyethyl)-3-(2-ethoxyethyl)-3,10-diazabicyclo[4.3.1]decan-2-one], the Ki on FKBP51 and on FKBP52 was 100 to 500 nM each time.
For the compound `C=CC1CN(Cc2ccccn2)C(=O)C2CCCC1N2S(=O)(=O)c1ccc(OC)c(Cl)c1` (stereo in doubt) [Compound K10, (1S,5R,6R)-10-((3-chloro-4-methoxyphenyl)sulfonyl)-3-(pyridin-2-ylmethyl)-5-vinyl-3,10-diazabicyclo[4.3.1]decan-2-one], the inhibition constant (Ki) on FKBP51 and on FKBP52 was 100 to 500 nM in each case.
For the compound `COC[C@H]1CN(Cc2cnn[nH]2)C(=O)[C@@H]2CCC[C@H]1N2S(=O)(=O)c1ccc(-c2ncccn2)cc1` [Compound N27, (1S,5S,6R)-3-((1H-1,2,3-triazol-5-yl)methyl)-5-(methoxymethyl)-10-((4-(pyrimidin-2-yl)phenyl)sulfonyl)-3,10-diazabicyclo[4.3.1]decan-2-one], the Ki on FKBP51 and at FKBP52 was at most 100 nM in each case.
With `C=CC1CN(CCCOC)C(=O)C2CCCC1N2S(=O)(=O)c1cc(Cl)cc(Cl)c1` (stereo in doubt) [Compound J2, (1S,5R,6R)-10-((3,5-dichlorophenyl)sulfonyl)-3-(3-methoxypropyl)-5-vinyl-3,10-diazabicyclo[4.3.1]decan-2-one], the Ki on FKBP51 and at FKBP52 was 500 to 1000 nM in each case.
With `COCCN1C[C@H](C=O)[C@H]2CCC[C@@H](C1=O)N2S(=O)(=O)c1cc(Cl)cc(Cl)c1` [Compound B9, (1S,5S,6R)-10-((3,5-dichlorophenyl)sulfonyl)-3-(2-methoxyethyl)-2-oxo-3,10-diazabicyclo[4.3.1]decane-5-carbaldehyde], the inhibition constant Ki on FKBP51 and on FKBP52 was 100 to 500 nM each time.
Turning to `C=C[C@@H]1CN(Cc2ccccn2)C(=O)[C@@H]2CCC[C@H]1N2S(=O)(=O)c1cc(Cl)cc(C(N)=O)c1` [Compound K19, 3-chloro-5-(((1S,5R,6R)-2-oxo-3-(pyridin-2-ylmethyl)-5-vinyl-3,10-diazabicyclo[4.3.1]decan-10-yl)sulfonyl)benzamide], the inhibition constant Ki at FKBP51 and at FKBP52 was 100 to 500 nM in each case.
For `COCO[C@H]1CNC(=O)[C@@H]2CCC[C@H]1N2S(=O)(=O)c1cc(Cl)cc(Cl)c1` [Compound H2.2, (1S,5S,6R)-10-((3,5-dichlorophenyl)sulfonyl)-5-(methoxymethoxy)-3,10-diazabicyclo[4.3.1]decan-2-one], the inhibition constant (Ki) on FKBP51 and at FKBP52 was 500 to 1000 nM each time.
Turning to `COCCN1C[C@H](C(C)O)C2CCCC(C1=O)N2S(=O)(=O)c1cc(Cl)cc(Cl)c1` (stereo in doubt) [Compound B6, (1S,5S,6R)-10-((3,5-dichlorophenyl)sulfonyl)-5-((R)-1-hydroxyethyl)-3-(2-methoxyethyl)-3,10-diazabicyclo[4.3.1]decan-2-one], the Ki at FKBP51 and on FKBP52 was at most 100 nM each time.
Regarding `C=CC1CN(Cc2ccccn2)C(=O)C2CCCC1N2S(=O)(=O)c1ccccc1` (stereo in doubt) [Compound K13, (1S,5R,6R)-10-(phenylsulfonyl)-3-(pyridin-2-ylmethyl)-5-vinyl-3,10-diazabicyclo[4.3.1]decan-2-one], the inhibition constant Ki at FKBP51 and on FKBP52 was 500 to 1000 nM each time.
For the compound `C#CCN1C[C@H](COC)[C@H]2CCC[C@@H](C1=O)N2S(=O)(=O)c1cccc(C(N)=O)c1` [Compound N4, 3-(((1S,5S,6R)-5-(methoxymethyl)-2-oxo-3-(prop-2-yn-1-yl)-3,10-diazabicyclo[4.3.1]decan-10-yl)sulfonyl)benzamide], the inhibition constant Ki on FKBP51 and at FKBP52 was 100 to 500 nM throughout.
For the compound `COC[C@H]1CN(Cc2cnn[nH]2)C(=O)[C@@H]2CCC[C@H]1N2S(=O)(=O)c1cccc(F)c1` [Compound N17, (1S,5S,6R)-3-((1H-1,2,3-triazol-5-yl)methyl)-10-((3-fluorophenyl)sulfonyl)-5-(methoxymethyl)-3,10-diazabicyclo[4.3.1]decan-2-one], the Ki at FKBP51 and at FKBP52 was at most 100 nM in each case.
Regarding `C=CC1CN(CC#N)C(=O)C2CCCC1N2S(=O)(=O)c1cc(Cl)cc(Cl)c1` (stereo in doubt) [Compound J16, 2-((1S,5R,6R)-10-((3,5-dichlorophenyl)sulfonyl)-2-oxo-5-vinyl-3,10-diazabicyclo[4.3.1]decan-3-yl)acetonitrile], the inhibitory constant (Ki) on FKBP51 and on FKBP52 was 100 to 500 nM each time.
As for `C=CC1CN(Cc2ccccn2)C(=O)C2CCCC1N2S(=O)(=O)c1cc(Br)cc(Br)c1` (stereo in doubt) [Compound K16, (1S,5R,6R)-10-((3,5-dibromophenyl)sulfonyl)-3-(pyridin-2-ylmethyl)-5-vinyl-3,10-diazabicyclo[4.3.1]decan-2-one], the Ki on FKBP51 and on FKBP52 was at most 100 nM each time.
Regarding `COCCN1C[C@H]([C@H](C)O)[C@H]2CCC[C@@H](C1=O)N2S(=O)(=O)c1cc(Cl)cc(Cl)c1` [Compound B7, (1S,5S,6R)-10-((3,5-dichlorophenyl)sulfonyl)-5-((S)-1-hydroxyethyl)-3-(2-methoxyethyl)-3,10-diazabicyclo[4.3.1]decan-2-one], the inhibitory constant (Ki) on FKBP51 and at FKBP52 was at most 100 nM throughout.

A word on the Ki: it is the equilibrium dissociation constant of an inhibitor or competing ligand from its target. A high value points to a looser hold on the target.
